Source: the CATMoS acute toxicity set (Mansouri et al. 2021)

test: GHS categories as the set defines them, by LD50: 1 up to 5, 2 up to 50, 3 up to 300, 4 up to 2000, 5 above 2000 mg/kg; details: rat; in vivo; po

`CCO[Si](C)(CCCCl)OCC` and `CCCCCCOC(=O)C(C)CC` (stereo unspecified) are the same in GHS category: 5 for the first, 5 for the second.

`CC(c1ccccc1)C1Nc2cc(Cl)c(S(N)(=O)=O)cc2S(=O)(=O)N1` (stereo unspecified) and `NC(=O)Oc1ccc(Cl)cc1C(=O)Oc1ccccc1` are the same in GHS category: 5 for the first, 5 for the second.

`CC(C)(CO)C(O)C(=O)NCCC(=O)NCCSSCCNC(=O)CCNC(=O)C(O)C(C)(C)CO` (stereo unspecified) and `CC(=O)CC(=O)Nc1cc(C)c(NC(=O)CC(C)=O)cc1C` are the same in GHS category: 5 for the first, 5 for the second.

`O=C(c1ccc(Cl)cc1)c1ccc2[nH]c(=O)oc2c1` and `O=S(=O)(c1ccc(Cl)cc1)c1ccc(Cl)cc1` are the same in GHS category: 5 for the first, 5 for the second.

`CN1C(C(=O)Nc2ccccn2)=C(OC(=O)C(C)(C)C)c2sccc2S1(=O)=O` and `CCCCCCCCCCCCCCCC(=O)OC1=C(C(=O)Nc2ccccn2)N(C)S(=O)(=O)c2ccsc21` are the same in GHS category: 2 for the first, 2 for the second.

`CCCCCCCCCCCCCCCOS(=O)(=O)O` and `CC(C)CCCCCCCCCCCCCCC(=O)O` are the same in GHS category: 5 for the first, 5 for the second.

`C=C(C)C(=O)OCCOC(=O)c1ccc2c(c1)C(=O)OC2=O` and `C/C=C(\C)C(=O)OCCc1ccccc1` are the same in GHS category: 5 for the first, 5 for the second.

`CCNC(=O)CCCSCc1nnnn1CC` and `CCc1ccc(-n2nnnc2CSCCC(=O)N(CC)CC)cc1` are the same in GHS category: 4 for the first, 4 for the second.

`CCC1(CC)C(=O)N2Cc3ccccc3CN2C1=O` and `CC1=NN(c2ccccc2)C(=O)C1=CN1CCCCC1` are the same in GHS category: 5 for the first, 5 for the second.

`O=S(=O)(O)c1cccc(Nc2nc(NCCO)nc(Nc3ccc(/C=C/c4ccc(Nc5nc(NCCO)nc(Nc6cccc(S(=O)(=O)O)c6)n5)cc4S(=O)(=O)O)c(S(=O)(=O)O)c3)n2)c1` and `COc1nc(Nc2ccccc2)nc(Nc2ccc(C=Cc3ccc(Nc4nc(Nc5ccccc5)nc(OC)n4)cc3S(=O)(=O)O)c(S(=O)(=O)O)c2)n1` are the same in GHS category: 5 for the first, 5 for the second.

`Cc1nc(NS(=O)(=O)c2ccc(N)cc2)oc1C` and `Cc1ccc(C(=O)NS(=O)(=O)c2ccc(N)cc2)cc1C` are the same in GHS category: 5 for the first, 5 for the second.

Compared with `C#CCON=CC1=CCCN(C)C1`, `C=CCOC(=O)Nc1nc(N2CC=CCC2)cc2nc(=O)on12` is higher in GHS category: 3 for the first, 5 for the second.

Going from `O=C1OCCC1O` (stereo unspecified) to `CC(OC(=O)ON1C(=O)CCC1=O)OC(=O)C(C)C` (stereo unspecified), the GHS category falls from 5 to 4.

`CCOC[C@H]1CO[C@@](Cn2cncn2)(c2cc3cc(Cl)cc(Cl)c3o2)O1` and `CC1OC(Cn2cncn2)(c2cc3cc(Cl)cc(Cl)c3o2)OC1C` (stereo unspecified) are the same in GHS category: 4 for the first, 4 for the second.

First: CC(C)NP1(=S)OCc2cc([N+](=O)[O-])ccc2O1 (stereo unspecified)
Second: O=c1[nH]c2ccc([N+](=O)[O-])cc2[nH]1
The GHS category of the first is lower: 3 for the first, 5 for the second.

Going from `Cc1nnc(SCC2=C(C(=O)O)N3C(=O)[C@@H](NC(=O)Cn4cnnn4)[C@H]3SC2)s1` to `CCOC(=O)C(=O)Nc1cc(OCCOC)ncn1`, the GHS category falls from 5 to 4.

`CC(C)COP(O)(=S)OCC(C)C` and `CCC(C)CCC(C)(CC)OC(C)=O` (stereo unspecified) are the same in GHS category: 5 for the first, 5 for the second.

`CC(C)(N=C=O)c1ccc(C(C)(C)N=C=O)cc1` and `CCOS(=O)(=O)c1cc(C(C)(C)C)cc2cc(C(C)(C)C)ccc12` are the same in GHS category: 5 for the first, 5 for the second.

First: OC(OCC(COC(O)C(Cl)(Cl)Cl)(COC(O)C(Cl)(Cl)Cl)COC(O)C(Cl)(Cl)Cl)C(Cl)(Cl)Cl (stereo unspecified)
Second: CCC(C)O[Si](OC(C)CC)(OC(C)CC)OC(C)CC (stereo unspecified)
The GHS category of the first is lower: 4 for the first, 5 for the second.

Going from `CCN(CC)c1ccc(N)cc1` to `CCN(C(=O)Oc1cccc(NC(=O)OC(C)C)c1)c1ccccc1`, the GHS category rises from 3 to 5.

`CC(=O)OCC(=O)[C@@]1(OC(C)=O)[C@@H](C)C[C@H]2[C@@H]3C[C@H](F)C4=CC(=O)C=C[C@]4(C)[C@@]3(F)[C@@H](O)C[C@@]21C` and `CC(=O)OCC(=O)[C@@]1(OC(C)=O)CC[C@H]2[C@@H]3C[C@@H](F)C4=CC(=O)C(Br)=C[C@]4(C)[C@@]3(F)[C@@H](O)C[C@@]21C` are the same in GHS category: 5 for the first, 5 for the second.

`CCCc1c(Cc2ccc(-c3ccccc3-c3nn[nH]n3)cc2)c(N(CC)CC)nc2ncnn12` and `CCCc1c(Cc2ccc(-c3ccccc3-c3nn[nH]n3)cc2)c(NCCN2CCOCC2)nc2ncnn12` are the same in GHS category: 4 for the first, 4 for the second.

Compared with `C[Si](Cl)(Cl)c1ccccc1`, `N#CCC(=O)c1ccccc1Cl` is higher in GHS category: 3 for the first, 5 for the second.

`Cc1ccc(C(=O)COc2c(C(=O)c3ccc(Cl)c(C)c3Cl)c(C)nn2C)cc1` and `Cc1ccc(C(C)C)cc1OC(=O)c1ccccc1Nc1cccc(C)c1C` are the same in GHS category: 5 for the first, 5 for the second.

`CC1(C)CC[C@@]2(C(=O)O)CC[C@@]3(C)C(=CC[C@H]4[C@]5(C)CC[C@@H](O)C(C)(C)[C@H]5CC[C@@]43C)[C@H]2C1` (racemic) and `C[C@]12CCC(=O)C=C1C=C[C@@H]1[C@@H]2CC[C@@]2(C)[C@H]1CC[C@@]21CCC(=O)O1` are the same in GHS category: 5 for the first, 5 for the second.

`CC(C#N)c1cccc(C(=O)Cl)c1` (stereo unspecified) and `Cc1ccc(C(N)=O)c(O)c1` are the same in GHS category: 5 for the first, 5 for the second.

First: CC(=O)COc1nn(-c2cccc(C(F)(F)F)c2)c2ncccc12
Second: COc1cnc(OC)n2nc(NS(=O)(=O)c3c(OCC(F)F)cccc3C(F)(F)F)nc12
The GHS category of the first is lower: 4 for the first, 5 for the second.

`CCCCC1OC(C)CC(C)(C)O1` (stereo unspecified) and `CC(CO)COC1CC2CCC1(C)C2(C)C` (stereo unspecified) are the same in GHS category: 5 for the first, 5 for the second.

`CCCC1OC(Cn2cncn2)(c2cc3ccccc3o2)OCC1CC` (stereo unspecified) and `c1ccc2oc(C3(Cn4cncn4)OCCCO3)cc2c1` are the same in GHS category: 4 for the first, 4 for the second.

`Nc1nc(=O)c2c(CCc3ccc(C(=O)O)cc3)c[nH]c2[nH]1` and `CCCc1c(OCc2cccn3c(=O)c(-c4nn[nH]n4)cnc23)ccc(C(C)=O)c1O` are the same in GHS category: 5 for the first, 5 for the second.

First: NS(=O)(=O)C(F)(F)C(F)(F)C(F)(F)C(F)(F)C(F)(F)C(F)(F)C(F)(F)C(F)(F)F
Second: CS(=O)(=O)c1ccc(C(=O)C2C(=O)CCCC2=O)c(Cl)c1COCC(F)(F)F
The GHS category of the first is lower: 3 for the first, 5 for the second.

`O=C(O)C1(O)c2ccccc2-c2ccc(Cl)cc21` (stereo unspecified) and `O=C(Nc1ccc(Cl)cc1C(O)c1ccccc1)c1ccncc1` (stereo unspecified) are the same in GHS category: 5 for the first, 5 for the second.

`CC1Oc2cc(C(=O)C=Cc3ccc(O)cc3)ccc2N(C)C1=O` (stereo unspecified) and `O=C1NC(=O)C(c2ccc(O)cc2)(c2ccc(O)cc2)N1` are the same in GHS category: 5 for the first, 5 for the second.

Compared with `Cc1cc(C)c(NC(=O)c2sc(N)nc2C)c(C)c1`, `Cc1cc(C)c(C(=O)P(=O)(c2ccccc2)c2ccccc2)c(C)c1` is higher in GHS category: 4 for the first, 5 for the second.

Compared with `CCCc1c(Cc2ccc(-c3ccccc3-c3nn[nH]n3)cc2)c(=O)nc2nc(CO)[nH]n12`, `CC(C)(CCn1c(=O)[nH]c2ccccc21)NCC(O)COc1cccc2ccccc12` (stereo unspecified) is higher in GHS category: 4 for the first, 5 for the second.

Compared with `CCOC(=O)NCC1CCN(c2nc(N)c3cc(OC)c(OC)cc3n2)CC1`, `CCOC(=O)C(=O)Nc1nc(-c2ccc(OC)cc2)cs1` is higher in GHS category: 4 for the first, 5 for the second.

Going from `COP(=S)(OC)Oc1ccc(Cl)cc1C#N` to `CCCCOC(=O)[C@@H](C)Oc1ccc(Oc2ccc(C#N)cc2F)cc1`, the GHS category rises from 4 to 5.

Compared with `CCCCCCCOCC(C)CC=O` (stereo unspecified), `CCCCCCCC(=O)OCCC(C)O` (stereo unspecified) is lower in GHS category: 5 for the first, 2 for the second.

`CCOc1ccc(Cc2cc([C@@H]3O[C@H](COC(C)=O)[C@@H](OC(C)=O)[C@H](OC(C)=O)[C@H]3OC(C)=O)ccc2Cl)cc1` and `CC12CCC3c4ccc(OC(=O)c5ccccc5)cc4CCC3C1CCC2OC(=O)COC(=O)CCCc1ccc(N(CCCl)CCCl)cc1` (stereo unspecified) are the same in GHS category: 5 for the first, 5 for the second.

`NC(=O)Oc1ccc(Cl)cc1C(=O)Oc1ccc(Cl)cc1Cl` and `Cc1ccccc1OC(=O)c1ccccc1OC(N)=O` are the same in GHS category: 5 for the first, 5 for the second.

`Cc1ccc(Cl)cc1N=Nc1c(O)c(C(=O)Nc2cc(C)c(NC(=O)c3cc4ccccc4c(N=Nc4cc(Cl)ccc4C)c3O)cc2C)cc2ccccc12` and `O=C(Nc1cc(Cl)c(NC(=O)c2cc3ccccc3c(N=Nc3cc(Cl)ccc3Cl)c2O)cc1Cl)c1cc2ccccc2c(N=Nc2cc(Cl)ccc2Cl)c1O` are the same in GHS category: 5 for the first, 5 for the second.

`Cc1cc(NC(=O)C2=C(O)c3ccccc3S(=O)(=O)N2C)no1` and `Fc1ccccc1C1=NCC(=S)N(CC(F)(F)F)c2ccc(Cl)cc21` are the same in GHS category: 5 for the first, 5 for the second.

Going from `CC(=O)SC[C@@H](C)C(=O)N1CCC[C@H]1C(=O)N[C@@H](Cc1ccccc1)C(=O)O` to `CC(C)OC(=O)CCC/C=C\C[C@@H]1[C@@H](CC[C@@H](O)CCc2ccccc2)[C@H](O)C[C@@H]1O`, the GHS category falls from 5 to 1.

`CC/C=C\CCOC(=O)CC` and `C=C(C)C(=O)OCC[N+](C)(C)C` are the same in GHS category: 5 for the first, 5 for the second.

`CC(C)(Oc1ccc(Cl)cc1)C(=O)OC(COC(=O)c1cccnc1)COC(=O)c1cccnc1` and `O=C(O[C@H]1[C@H](OC(=O)c2cccnc2)[C@@H](OC(=O)c2cccnc2)[C@H](OC(=O)c2cccnc2)[C@@H](OC(=O)c2cccnc2)[C@H]1OC(=O)c1cccnc1)c1cccnc1` are the same in GHS category: 5 for the first, 5 for the second.

`Brc1c(Br)c(Br)c(CCc2c(Br)c(Br)c(Br)c(Br)c2Br)c(Br)c1Br` and `COc1cc(/N=N/c2c(Br)cc([N+](=O)[O-])cc2[N+](=O)[O-])c(NC(C)=O)cc1N(CCOC(C)=O)CCOC(C)=O` are the same in GHS category: 5 for the first, 5 for the second.

`CS(=O)(=O)OC[C@@H](OS(C)(=O)=O)[C@@H](O)[C@H](O)[C@@H](COS(C)(=O)=O)OS(C)(=O)=O` and `C=C(CC)CCCC(C)(C)OC(C)=O` are the same in GHS category: 5 for the first, 5 for the second.

`Nc1cc(Cl)nc(C(=O)O)c1Cl` and `Cn1cc(C(=O)O)c(C(F)F)n1` are the same in GHS category: 5 for the first, 5 for the second.

`CCOC(C)(C)C` and `CCN(CC)CC1CC2(CC(CN(CC)CC)OC2=O)C(=O)O1` (stereo unspecified) are the same in GHS category: 5 for the first, 5 for the second.

Compared with `OC1C(Cl)(Cl)C(=C(Cl)Cl)C2(OC2Cl)C1(Cl)Cl` (stereo unspecified), `N#Cc1c[nH]cc1-c1cccc2c1OC(F)(F)O2` is higher in GHS category: 4 for the first, 5 for the second.

`C=COC(=O)CCCCCCCCCCC` and `CCOC[C@@H]1[C@@H](O)[C@H](O[C@H]2[C@H](O)[C@@H](OCC)[C@H](O)O[C@@H]2CO)O[C@H](COCC)[C@H]1O` are the same in GHS category: 5 for the first, 5 for the second.

Compared with `O=NNC1=NCCN1Cc1ccc(Cl)nc1`, `OC1(c2ccc(-c3ccccc3)cc2)c2ccccc2C2=NCCN21` (stereo unspecified) is lower in GHS category: 5 for the first, 4 for the second.

Going from `CN(SN(C)C(=O)Oc1ccc(C(C)(C)c2ccc(OC(=O)N(C)SN(C)C(=O)ON=C3CSCCS3)cc2)cc1)C(=O)ON=C1CSCCS1` to `OC(Cn1ccnc1)c1ccc(CCc2ccccc2)cc1` (stereo unspecified), the GHS category rises from 4 to 5.
